{"source": "patent US20150176022A1", "about": "“HERBICIDE-RESISTANT SUNFLOWER PLANTS, POLYNUCLEOTIDES ENCODING HERBICIDE=RESISTANT ACETO HYDROXY ACID SYNTHASE LARGE SUBUNIT PROTEINS, AND METHODS OF USE” (priority 2013, published 2015)", "type_in_all_cases": "in vivo, Helianthus annuus", "key": {"[1]": {"system": "Conventional non-Clearfield sunflower variety", "experiment": "Greenhouse spray test, injury rating (Example 5)", "conditions": "Imazapyr 240 gm ai/ha, 14 DAT, scale 0=no injury to 9=dead plant", "description": "(§1) Sunflower lines S4897, Clearfield® sunflower varieties A, B, C and a conventional non-Clearfield variety were sprayed with three rates of imazamox (Raptor™), 100, 200 and 300 gm ai/ha plus 0.5% Sun It II and two rates of imazapyr (Arsenal™) 160 and 360 gm ai/ha plus 0.5% Sun It II when the plants were at the two to three leaf stage. Ratings were taken at 14 days after application (DAT) for injury. Injury was rated on a scale from 0 to 9 where 0=no injury to 9=dead plant. Twelve plants were sprayed per herbicide/rate treatment. Statistical analysis was conducted with STATGRAPHICS Plus 5.0 by using ANOVA and LSD procedures.\n(§2) After plants were sprayed, it was realized that a height difference between S4897 and other sunflower varieties would have impacted the actual herbicide dose that was delivered. The spray boom height had been calibrated against S4897 and since the other varieties were taller and closer to the boom they would have received a greater dose of herbicide. Rates were recalibrated for the other varieties to determine the approximate dose they would have received. Assessments were made as presented in Table 2 since it was not possible to make a direct rate comparison due to the effect of the height. For example injury scores were compare for S4897 treated imazamox rate 100 gm ai/ha to the other varieties treated at 75 gm ai/ha. The treatment dose of 300 gm ai/ha for line S4897 was equivalent to the treatment of 200 gm ai/ha for the other varieties, which […]."}, "[2]": {"system": "Clearfield-Sunflower variety A", "experiment": "Greenhouse spray test, injury rating (Example 5)", "conditions": "Imazapyr 240 gm ai/ha, 14 DAT, scale 0=no injury to 9=dead plant", "description": "as §1, §2"}, "[3]": {"system": "Clearfield-Sunflower variety C", "experiment": "Greenhouse spray test, injury rating (Example 5)", "conditions": "Imazapyr 240 gm ai/ha, 14 DAT, scale 0=no injury to 9=dead plant", "description": "as §1, §2"}, "[4]": {"system": "sunflower genotypes carrying the A205V mutation event", "experiment": "Greenhouse whole-plant imazapir dose response (Example 8), group mean", "conditions": "14 DAT; for biomass, Dif with control (reduction), A205V / plant height, Dif with Control (height reduction), A205V / root dry weight, Dif with control (reduction), A205V: A205V mean; for biomass accumulation (% of untreated), Mean A205V / root dry weight (% of untreated), Mean A205V / plant height (% of untreated), Mean A205V: mean of six A205V genotypes; for Phytotoxicity Index, Mean A205V: mean of three A205V genotypes", "experimental": "A greenhouse study was conducted to quantify and contrast the imazapir sensitivity of the mutants A122T and A205V in different genetic backgrounds at the whole plant level in sunflower. Seeds of the different sunflower lines that were used in this study were obtained under field conditions.\nSeeds were sown in Petri dishes and, after germination, plantlets were transplanted to pots of 10 cm of diameter in a potting media consisting of equal parts of vermiculite, soil and sand. Plants were grown in a greenhouse under natural light conditions supplemented with 400 W sodium halide lamps to provide a 16 hrs daylength. Day/night temperatures were 25 and 20° C., respectively. At the V2 stage 10 plants of each genotype were randomly assigned to each treatment consisting of […] imazapir doses (0, 40, 80, 160, 240, 320, 400 and 480 g ai/ha), and a zero-time biomass determination. Experiment was arranged as a randomized block design with a full factorial (sunflower line×treatment) arrangement of treatments and 10 replications.\nOn the day of herbicide application ten plants of each genotype were cut at the cotyledonal node and dried at 60° C. for 48 hrs zero-time for dried weight determination. […] Height was determined as the distance between the cotyledonal node and the apex of each plant. For root biomass determination, each plant was taken from the pot and the potting media was washed out from the roots. Above ground biomass data from each line were converted to biomass accumulation after application by subtracting the appropriate average zero-time biomass from each sample. Dry biomass data were converted to percentages of the untreated control plants within each line to allow direct comparisons between groups."}}, "note": "Several values for one entry are separate records, joined by “and”; a condition that tells them apart may be missing. Equal values may be shown once.", "data": [{"smiles": "CC(C)C1(C)N=C(c2ncccc2C(=O)O)NC1=O", "note": "(stereo not drawn) [imazapir, imazapyr]", "values": [{"measurement": "Injury", "setting": "[1]", "value": 8.2, "unit": "days"}, {"measurement": "Injury", "setting": "[2]", "value": 5.0, "unit": "c"}, {"measurement": "Injury", "setting": "[3]", "value": 4.9, "unit": "c"}, {"measurement": "biomass, Dif with control (reduction), A205V", "setting": "[4]; 0.5× (40 g ai/ha)", "value": 5.5, "unit": "%"}, {"measurement": "plant height, Dif with Control (height reduction), A205V", "setting": "[4]; 0.5× (40 g ai/ha)", "value": 5.6, "unit": "%"}, {"measurement": "root dry weight, Dif with control (reduction), A205V", "setting": "[4]; 0.5× (40 g ai/ha)", "value": 12.8, "unit": "%"}, {"measurement": "biomass, Dif with control (reduction), A205V", "setting": "[4]; 1× (80 g ai/ha)", "value": 17.8, "unit": "%"}, {"measurement": "plant height, Dif with Control (height reduction), A205V", "setting": "[4]; 1× (80 g ai/ha)", "value": 10.8, "unit": "%"}, {"measurement": "root dry weight, Dif with control (reduction), A205V", "setting": "[4]; 1× (80 g ai/ha)", "value": 29.2, "unit": "%"}, {"measurement": "biomass, Dif with control (reduction), A205V", "setting": "[4]; 2× (160 g ai/ha)", "value": 38.4, "unit": "%"}, {"measurement": "plant height, Dif with Control (height reduction), A205V", "setting": "[4]; 2× (160 g ai/ha)", "value": 30.8, "unit": "%"}, {"measurement": "root dry weight, Dif with control (reduction), A205V", "setting": "[4]; 2× (160 g ai/ha)", "value": 49.4, "unit": "%"}, {"measurement": "biomass, Dif with control (reduction), A205V", "setting": "[4]; 3× (240 g ai/ha)", "value": 52.4, "unit": "%"}, {"measurement": "plant height, Dif with Control (height reduction), A205V", "setting": "[4]; 3× (240 g ai/ha)", "value": 49.6, "unit": "%"}, {"measurement": "root dry weight, Dif with control (reduction), A205V", "setting": "[4]; 3× (240 g ai/ha)", "value": 60.8, "unit": "%"}, {"measurement": "biomass, Dif with control (reduction), A205V", "setting": "[4]; 4× (320 g ai/ha)", "value": 64.6, "unit": "%"}, {"measurement": "plant height, Dif with Control (height reduction), A205V", "setting": "[4]; 4× (320 g ai/ha)", "value": 66.3, "unit": "%"}, {"measurement": "root dry weight, Dif with control (reduction), A205V", "setting": "[4]; 4× (320 g ai/ha)", "value": 68.9, "unit": "%"}, {"measurement": "biomass, Dif with control (reduction), A205V", "setting": "[4]; 5× (400 g ai/ha)", "value": 67.6, "unit": "%"}, {"measurement": "plant height, Dif with Control (height reduction), A205V", "setting": "[4]; 5× (400 g ai/ha)", "value": 68.0, "unit": "%"}, {"measurement": "root dry weight, Dif with control (reduction), A205V", "setting": "[4]; 5× (400 g ai/ha)", "value": 69.3, "unit": "%"}, {"measurement": "biomass, Dif with control (reduction), A205V", "setting": "[4]; 6× (480 g ai/ha)", "value": 70.0, "unit": "%"}, {"measurement": "plant height, Dif with Control (height reduction), A205V", "setting": "[4]; 6× (480 g ai/ha)", "value": "68.9% and 69.8%"}, {"measurement": "root dry weight, Dif with control (reduction), A205V", "setting": "[4]; 6× (480 g ai/ha)", "value": 75.6, "unit": "%"}, {"measurement": "biomass accumulation (% of untreated), Mean A205V", "setting": "[4]; 0.5× (40 g ai/ha)", "value": 94.5, "unit": "%"}, {"measurement": "root dry weight (% of untreated), Mean A205V", "setting": "[4]; 0.5× (40 g ai/ha)", "value": 87.2, "unit": "%"}, {"measurement": "biomass accumulation (% of untreated), Mean A205V", "setting": "[4]; 1× (80 g ai/ha)", "value": 82.2, "unit": "%"}, {"measurement": "root dry weight (% of untreated), Mean A205V", "setting": "[4]; 1× (80 g ai/ha)", "value": 70.8, "unit": "%"}, {"measurement": "biomass accumulation (% of untreated), Mean A205V", "setting": "[4]; 2× (160 g ai/ha)", "value": 61.6, "unit": "%"}, {"measurement": "plant height (% of untreated), Mean A205V", "setting": "[4]; 2× (160 g ai/ha)", "value": 69.2, "unit": "%"}, {"measurement": "root dry weight (% of untreated), Mean A205V", "setting": "[4]; 2× (160 g ai/ha)", "value": 50.6, "unit": "%"}, {"measurement": "biomass accumulation (% of untreated), Mean A205V", "setting": "[4]; 3× (240 g ai/ha)", "value": 47.6, "unit": "%"}, {"measurement": "plant height (% of untreated), Mean A205V", "setting": "[4]; 3× (240 g ai/ha)", "value": 50.4, "unit": "%"}, {"measurement": "root dry weight (% of untreated), Mean A205V", "setting": "[4]; 3× (240 g ai/ha)", "value": 39.2, "unit": "%"}, {"measurement": "biomass accumulation (% of untreated), Mean A205V", "setting": "[4]; 4× (320 g ai/ha)", "value": 35.4, "unit": "%"}, {"measurement": "plant height (% of untreated), Mean A205V", "setting": "[4]; 4× (320 g ai/ha)", "value": 33.7, "unit": "%"}, {"measurement": "root dry weight (% of untreated), Mean A205V", "setting": "[4]; 4× (320 g ai/ha)", "value": 31.1, "unit": "%"}, {"measurement": "biomass accumulation (% of untreated), Mean A205V", "setting": "[4]; 5× (400 g ai/ha)", "value": 32.4, "unit": "%"}, {"measurement": "plant height (% of untreated), Mean A205V", "setting": "[4]; 5× (400 g ai/ha)", "value": 32.0, "unit": "%"}, {"measurement": "root dry weight (% of untreated), Mean A205V", "setting": "[4]; 5× (400 g ai/ha)", "value": 30.7, "unit": "%"}, {"measurement": "biomass accumulation (% of untreated), Mean A205V", "setting": "[4]; 6× (480 g ai/ha)", "value": 30.0, "unit": "%"}, {"measurement": "plant height (% of untreated), Mean A205V", "setting": "[4]; 6× (480 g ai/ha)", "value": 30.2, "unit": "%"}, {"measurement": "root dry weight (% of untreated), Mean A205V", "setting": "[4]; 6× (480 g ai/ha)", "value": 24.4, "unit": "%"}, {"measurement": "Phytotoxicity Index, Mean A205V", "setting": "[4]; 2× (160 g ai/ha)", "value": 2.2}, {"measurement": "Phytotoxicity Index, Mean A205V", "setting": "[4]; 3× (240 g ai/ha)", "value": 5.1}, {"measurement": "Phytotoxicity Index, Mean A205V", "setting": "[4]; 4× (320 g ai/ha)", "value": 7.4}, {"measurement": "Phytotoxicity Index, Mean A205V", "setting": "[4]; 5× (400 g ai/ha)", "value": 8.2}, {"measurement": "Phytotoxicity Index, Mean A205V", "setting": "[4]; 6× (480 g ai/ha)", "value": 8.2}]}]}
